The text below walks through data of patent publication US20130131111A1, “NMN MODULATORS FOR THE TREATMENT OF NEURODEGENERATIVE DISORDERS” (Babraham Institute, priority 2010, published 2013).

Structures are written as SMILES.

What all share (assay type): cell-based, mouse
The subject of series [1] is intracellular NAD(P)^+ levels in SCG cultures. The series is described as follows: NAD(P)+ levels in SCG explant cultures. Conditions: 100 nM FK866 for 8 h or 24 h; FIG. 2. The procedure: (§1) Explants were placed into L15 (Leibovitz) medium (Invitrogen), cleaned from other tissues, cut in half and six half explants were placed in the centre of 3.5 cm tissue culture dishes pre-coated with poly-L-lysine (20 μg/ml for 2 h; Sigma) and laminin (20 μg/ml for 2 h; Sigma). Explants were cultured in DMEM containing 4500 mg/L glucose and 110 mg/L sodium pyruvate (Sigma), 2 mM glutamine, 1% penicillin/streptomycin, 1/50 B27 serum supplement and 100 ng/ml 7S NGF (all from Invitrogen) and 4 μM aphidicolin (Sigma) to block proliferation of non-neuronal cells. Neurites were allowed to extend for 7 days in all cultures before any treatment. After this time, neurites were separated from their cell bodies using a scalpel. […] Bright-field images were captured on an Olympus IX81 inverted microscope using a Soft Imaging Systems F-View camera linked to a PC running the Analysis software. Images of the same field of neurites were captured just after or at regular intervals up to 48-72 hours after cut injuries.
At this time, the explants were collected in 100 μl H2O for NAD(P)^+ determination as described in Billington et al. (2008) J Biol Chem 283(10), 6367-6374.
The results of this analysis can be seen in FIG. 2. […] Therefore, the reduced intracellular levels of NMN^+ result in a reduction in the turnover of NMN^+ to NAD^+ by isoforms of Nmnat.

The subject of series [2] is cut neurites of SCG neurons. The series is described as follows: Cut neurites of SCG explant cultures (Wallerian degeneration). The procedure:
as §1, with “injuries. […] In this experiment, SCG neurons were cultured for 7 days as described in the methodology, then the neurites were separated from the cell bodies by a scalpel, and the distal part of the neurites with respect to the cut was imaged immediately after the cut or 24 hours after the cut.” for “injuries.”

Another series has as its system neurites of SCG neurons. The series is described as follows: Vincristine-treated neurites of SCG explant cultures. The procedure:
as §1
This experiment was performed in an analogous manner to that described in Examples 2 and 3, however the neurites, instead of being separated by the cell body with a cut, were treated with the neurotoxic chemotherapy drug vincristine. […] The distal part of the neurites was imaged immediately and at 24, 48 and 72 hours after adding the drugs.

In the case of `O=C(/C=C/c1cccnc1)NCCCCC1CCN(C(=O)c2ccccc2)CC1` [FK866, N-[4-(1-benzoyl-4-piperidinyl)butyl]-3-(3-pyridinyl)-2E-propenamide], the “effect on NAD^+ levels” value in series [1] is on record as “depletion of NAD^+”. Also, the neurite survival increase entry in series [2] (FK866 100 nM, cut neurites, estimated) is “increased by four fold”. The “effect on injured (cut) neurites” value in series [2] (FK866 100 nM, imaged 24 hours after cut, FIG. 3) is on record as “preserving injured neurites in primary culture even if added shortly after cutting”. Further, the “neuroprotective effect on cell bodies” value in series [2] (data not shown) is listed as “does not extend to cell bodies”. Moreover, the “effect on vincristine-induced neurite degeneration” value in the series on neurites of SCG neurons (0.02 μM vincristine plus 100 nM FK866, up to 72 hours, FIG. 5) is reported as “protection”.

With `NC(=O)c1ccc[n+]([C@@H]2O[C@H](COP(=O)([O-])O)[C@@H](O)[C@H]2O)c1` [NMN, nicotinamide mononucleotide], the “effect of adding NMN^+ with FK866 on cut neurites” value in series [2] (NMN^+ in combination with FK866, FIG. 4) is on record as “reverts the protective effect of FK866”. In addition, the “effect of adding NMN with FK866 on vincristine-treated neurites” value in the series with neurites of SCG neurons (0.02 μM vincristine plus 100 nM FK866 and 1 mM NMN, FIG. 5) is “protective effect is reverted”.

As for `CC[C@]1(O)C[C@H]2CN(CCc3c([nH]c4ccccc34)[C@@](C(=O)OC)(c3cc4c(cc3OC)N(C=O)[C@H]3[C@@](O)(C(=O)OC)[C@H](OC(C)=O)[C@]5(CC)C=CCN6CC[C@]43[C@@H]65)C2)C1` [Vincristine, vincristine], the “toxic effect on neurites” value with neurites of SCG neurons (0.02 μM vincristine alone) is given as “progressive distal-to-proximal degeneration of neurites”.
